{"source": "patent US12240851B1", "about": "“Pyrido[3′,4′:4,5]pyrrolo[3,2-c]naphthyridine compounds as CK2 inhibitors” (KING FAISAL UNIVERSITY, priority 2023, dated 2025)", "key": {"[1]": {"system": "PC3 (prostate)", "experiment": "In vitro cytotoxic activity assay (MTT), PC3", "type": "cell-based", "conditions": "Homo sapiens, 96 hours exposure, read-out: IC50, 50% inhibition of cell proliferation", "procedure": "(§1) Compounds 1-15 were screened for their in vitro cytotoxic activity utilizing a 3-(4,5-dimethyl-thiazol-2-yl)-2,5-diphenyltetrazolium bromide (MTT) assay against selected cancer human cell lines consisting of PC3 (prostate), HCT116 (colon), A375 (melanoma), H1299 (lung), MIAPaCa-2 (pancreas), HL60 (leukemia), MCF7 (breast), MDA-MB-231 (breast) (T. Mosmann, J. Immunol. Meth., 1983, 65, 55-63). The cells were cultured at 37° C. in RMPI1640 medium supplemented with 10% fetal bovine serum, 50 IU/mL penicillin, and 50 µg/mL streptomycin in a 5% CO2 incubator. All cells were sub-cultured 3 times/week by trypsinisation. Viable cells were seeded and allowed to adhere for 12 h before a test drug was added in 96-well plates at an initial density of 1.0×10^5 cells/mL. Tumour cell lines were separately exposed to various concentrations of the tested compounds followed by incubation at a temperature of 37° C. during 96 h inside a medium of fresh RMPI 1640. Cells were subsequently incubated at 37° C. using MTT at 0.5 mg/mL during 4 h. After removal of supernatant, formazan crystals were dissolved in isopropanol and the optical density was measured at 570 nm. CX-4945 was used as a positive control."}, "[2]": {"system": "HCT116 (colon)", "experiment": "In vitro cytotoxic activity assay (MTT), HCT116", "type": "cell-based", "conditions": "Homo sapiens, HCT-116, 96 hours exposure, read-out: IC50, 50% inhibition of cell proliferation", "procedure": "as §1"}, "[3]": {"system": "A375 (melanoma)", "experiment": "In vitro cytotoxic activity assay (MTT), A375", "type": "cell-based", "conditions": "Homo sapiens, A-375, 96 hours exposure, read-out: IC50, 50% inhibition of cell proliferation", "procedure": "as §1"}, "[4]": {"system": "H1299 (lung)", "experiment": "In vitro cytotoxic activity assay (MTT), H1299", "type": "cell-based", "conditions": "Homo sapiens, NCI-H1299, 96 hours exposure, read-out: IC50, 50% inhibition of cell proliferation", "procedure": "as §1"}, "[5]": {"system": "MIAPaCa-2 (pancreas)", "experiment": "In vitro cytotoxic activity assay (MTT), MIAPaCa-2", "type": "cell-based", "conditions": "Homo sapiens, MIA PaCa-2, 96 hours exposure, read-out: IC50, 50% inhibition of cell proliferation", "procedure": "as §1"}, "[6]": {"system": "HL60 (leukemia)", "experiment": "In vitro cytotoxic activity assay (MTT), HL60", "type": "cell-based", "conditions": "Homo sapiens, HL-60, 96 hours exposure, read-out: IC50, 50% inhibition of cell proliferation", "procedure": "as §1"}, "[7]": {"system": "MCF7 (breast)", "experiment": "In vitro cytotoxic activity assay (MTT), MCF7", "type": "cell-based", "conditions": "Homo sapiens, 96 hours exposure, read-out: IC50, 50% inhibition of cell proliferation", "procedure": "as §1"}, "[8]": {"system": "MDA-MB-231 (breast)", "experiment": "In vitro cytotoxic activity assay (MTT), MDA-MB-231", "type": "cell-based", "conditions": "Homo sapiens, 96 hours exposure, read-out: IC50, 50% inhibition of cell proliferation", "procedure": "as §1"}, "[9]": {"molecular_target": "T1, recombinant human CK2 (RRββ-holoenzyme) (Homo sapiens, UniProt P68400)", "T1 construct": "purchased Millipore", "T1 sequence (P68400 whole entry)": "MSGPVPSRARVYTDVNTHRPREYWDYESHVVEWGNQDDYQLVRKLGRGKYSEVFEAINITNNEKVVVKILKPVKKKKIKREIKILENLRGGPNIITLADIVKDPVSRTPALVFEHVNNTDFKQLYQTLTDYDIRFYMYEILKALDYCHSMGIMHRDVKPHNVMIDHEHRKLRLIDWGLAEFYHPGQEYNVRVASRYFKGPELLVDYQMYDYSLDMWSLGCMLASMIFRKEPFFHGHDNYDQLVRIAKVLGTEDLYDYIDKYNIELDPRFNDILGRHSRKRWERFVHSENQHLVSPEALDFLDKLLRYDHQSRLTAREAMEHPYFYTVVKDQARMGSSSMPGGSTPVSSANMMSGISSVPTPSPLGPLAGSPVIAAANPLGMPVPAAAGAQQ", "T1 sequence (P67870 whole entry partner)": "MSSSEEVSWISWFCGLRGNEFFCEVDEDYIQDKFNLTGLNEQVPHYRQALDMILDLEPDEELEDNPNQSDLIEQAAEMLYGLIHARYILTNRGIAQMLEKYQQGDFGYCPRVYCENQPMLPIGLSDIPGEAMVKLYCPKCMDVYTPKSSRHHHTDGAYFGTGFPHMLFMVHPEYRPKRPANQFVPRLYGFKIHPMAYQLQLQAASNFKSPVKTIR", "experiment": "CK2 Kinase Assay (33P-ATP, filter plate)", "type": "biochemical", "conditions": "final ATP concentration 15 μM, 10 min at 30° C.; read-out: protein kinase CK2 IC50", "procedure": "CK2 Kinase Assay was conducted using the protocol as described in Pierre F. et al; J. Med. Chem. 2011, 54, 635-654. The tested compounds in aqueous solution were added at a volume of 10 μL to a reaction mixture comprising 10 μL of assay dilution buffer (ADB; 20 mM MOPS, pH 7.2, 25 mM β-glycerol phosphate, 5 mM EGTA, 1 mM sodium orthovanadate, and 1 mM dithiothreitol), 10 μL of substrate peptide (RRRDDDSDDD, dissolved in ADB at a concentration of 1 mM), 10 μL of recombinant human CK2 (RRββ-holoenzyme, 25 ng dissolved in ADB; Millipore). Reactions were initiated by the addition of 10 μL of ATP solution (90% 75 mMMgCl2, 75 μM ATP (final ATP concentration:15 μM) dissolved in ADB; 10% [γ-33P] ATP (stock 1mCi/100 μL; 3000 Ci/mmol (Perkin-Elmer) and maintained for 10 min at 30° C. The reactions were quenched with 100 μL of 0.75% phosphoric acid and then transferred to and filtered through a phosphor cellulose filter plate (Millipore). After washing each well five times with 0.75% phosphoric acid, the plate was dried under vacuum for 5 min and, following the addition of 15 μL of scintillation fluid to each well, the residual radioactivity was measured using a Wallac […]. The IC50 values were derived from eight concentrations of test inhibitors."}}}
{"smiles": "Clc1cccc(Nc2nc3c4cnccc4[nH]c3c3cnccc23)c1", "note": "[Compound (1), N-(3-chlorophenyl)-11H-pyrido[3′,4′:4,5]pyrrolo[3,2-c][2,6]naphthyridin-5-amine]", "values": [{"measurement": "IC50", "setting": "[1]", "result": 0.8, "unit": "µM"}, {"measurement": "IC50", "setting": "[2]", "result": 1.5, "unit": "µM"}, {"measurement": "IC50", "setting": "[3]", "result": 4, "unit": "µM"}, {"measurement": "IC50", "setting": "[4]", "result": 1.1, "unit": "µM"}, {"measurement": "IC50", "setting": "[5]", "result": 1.4, "unit": "µM"}, {"measurement": "IC50", "setting": "[6]", "result": 3.2, "unit": "µM"}, {"measurement": "IC50", "setting": "[7]", "result": 2.5, "unit": "µM"}, {"measurement": "IC50", "setting": "[8]", "result": 2.9, "unit": "µM"}, {"measurement": "IC50", "setting": "[9]", "result": 0.021, "unit": "µM"}]}
